Assay results taken from US20250376466A1, “ESTER COMPOUNDS AND USE THEREOF” (NANJING REJU THERAPEUTICS, CO., LTD., priority 2022, published 2025).

Legend:
[1] = tested on: normal and senescent A549 cells; assay: Senescent cell clearance index (senolytic index); format: cell-based, human; settings: higher index = greater specificity
Experimental: (§1) In this example, human non-small cell lung cancer cell line (A549 cells), human embryonic lung fibroblast cell line (IMR90 cells), human retinal pigment epithelial cells (RPE cells), mouse chondrocytes, and mouse skin fibroblasts were selected. The cells above were induced to obtain senescent cells by etoposide (10 μM). The effect of the target compounds RZ001-RZ006 and RZ201 on the viability of normal and senescent cells above was detected, thereby evaluating the specific killing effect of the prodrugs RZ001-RZ006 and RZ201 on senescent cells above.
(§2) Briefly, senescent and normal cells above were selected and plated separately (96-well plates). After adding the compounds RZ001-RZ006 and RZ201 (concentration: 1 μM) for 72 hours, CellTiter-Glo® Luminescent Cell Viability Assay Kit (Promega) was used to detect cell viability, and the results were shown in FIGS. 2A to 2E.
Furthermore, the senescent cell clearance index (senolytic index) was also calculated for both normal and senescent A549 cells, as shown in Table 4. A higher index indicates greater specificity in eliminating senescent cells and better safety.

[2] = tested on: senescent A549 cells, IMR90 cells, RPE cells, mouse chondrocytes, mouse skin fibroblasts; assay: Cell viability of senescent cells (CellTiter-Glo); format: cell-based, human; settings: 1 μM, 72 hours; etoposide (10 μM)-induced senescent cells; FIGS. 2A to 2E
Experimental: as §1, §2

[3] = tested on: normal A549 cells, IMR90 cells, RPE cells, mouse chondrocytes, mouse skin fibroblasts; assay: Cell viability of normal cells (CellTiter-Glo); format: cell-based, human; settings: 1 μM, 72 hours, FIGS. 2A to 2E
Experimental: as §1, §2

diabetic retinopathy = assay: Mouse model of diabetic retinopathy (STZ), Evans blue penetration; format: in vivo; settings: intravitreal (IVT), 1 μL of 200 μM at 8 and 9 weeks after STZ; Evans blue at 10 weeks; FIG. 4
Experimental: The efficacy of the compounds of the present disclosure was studied in a mouse model of diabetic retinopathy by multiple administrations of streptozotocin (STZ). C57BL/6J mice at 6 to 7 weeks were weighed and their baseline blood glucose was measured (Sino). STZ (Sigma-Aldrich) was injected intraperitoneally into the mice at 55 mg/Kg for five consecutive days. Age-matched controls were injected with buffer only. Blood glucose was measured again one week after the last STZ injection. 1 μL of the test compound (200 μM, a suspension formulated in 0.015% polysorbate 80, 0.2% sodium phosphate, 0.75% sodium chloride, pH 7.2) was injected intravitreally into the STZ-treated diabetic C57BL/6J mice at 8 and 9 weeks after STZ administration. 10 weeks after STZ treatment, the retinal Evans blue penetration assay was performed.

[4] = tested on: wet-age-related macular degeneration (CNV); assay: CNV animal model of wet age-related macular degeneration; format: in vivo, mice; settings: intravitreal (IVT); laser CNV model; FIG. 5
Experimental: In this example, the efficacy of the compounds of the present disclosure was tested on wet-age-related macular degeneration in a CNV animal model.
Male mice were administered 0.5% probacaine hydrochloride (Alcon) for local anesthesia, and 1% tropicamide to dilate the pupils of the mice. Laser cauterization was performed using a laser photocoagulator (Novus Varia, LUMENIS) with a slit lamp delivery system. And artificially torn adherent glass coverslips were used as contact lenses. Bleeding spots caused by laser were not included in the statistical data.

[5] = tested on: idiopathic pulmonary fibrosis; assay: Bleomycin idiopathic pulmonary fibrosis animal model; format: in vivo, SD rats; settings: intraperitoneal (IP) 5 mg/kg, 3 consecutive weeks from day 7; Day 28; FIG. 6
Experimental: In this example, the efficacy of the compounds of the present disclosure was tested on idiopathic pulmonary fibrosis in an idiopathic pulmonary fibrosis animal model. Briefly, anesthetized 6-week-old SD rats were fixed on a foam board with medical tape. Firstly, the skin on the surface of the trachea was cut with surgical scissors to fully expose the trachea, and a 100-microlitre micro-syringe containing a certain volume of bleomycin (BLM 5 mg/kg) solution drawn based on the body weight of the rat was inserted into the trachea through the oral cavity to administer by slow bolus injection. After administration of the BLM solution, the foam plate was immediately rotated and shaken to distribute the BLM solution as evenly as possible in the lung tissue. Then the skin on the surface of the trachea was sutured with surgical sutures and about 0.5 to 1.0 mL of penicillin solution was dripped onto the epidermis to prevent infection of the surgical wound. After the 7th day of modelling, the compound solution of the present disclosure was administered via intraperitoneal (IP) injection (5 mg/kg) according to the weight of the rat for 3 consecutive weeks. Rats were euthanized by carbon dioxide at Day 28, the lung tissues were removed, the left alveolar lavage fluid was collected for white blood cell (WBC) counting, the right lung tissue portion was used for hydroxyproline (HYP) assay, and the remaining lung tissues were stained for pathology by H&E staining and Masson staining.

osteoarthritis = assay: Osteoarthritis animal model; format: in vivo, mice; settings: intra-articular injection; FIG. 7
Experimental: In this example, the efficacy of the compounds of the present disclosure was tested on osteoarthritis in an osteoarthritis animal model.
The osteoarthritis animal model was constructed by the following steps. The mice were anesthetized with isoflurane, and fixed. The hair on the right hind limb of the mice was shaved and the skin was disinfected with alcohol, and the skin of the joints was cut. Under an optical microscope, the inside of the right knee joint was incised longitudinally with a blade, without cutting the patellar ligament. The patellar ligament was pulled to one side with constant hemostasis by compression with sterile cotton swabs such that the joint cavity was fully exposed. Saline was added dropwise in time to avoid the drying up of the joint cavity. The excess muscle tissue was gently separated with a blunt forceps to expose the meniscus ligament. The anterior cruciate ligament was found in the depth of the joint cavity and cut with micro scissor. Then the wound was disinfected with penicillin solution, the muscle was sutured with sterile needle and thread, and the skin tissue was finally sutured. The efficacy of the drug was determined by intra-articular injection administration. At the endpoint of the test, continued pain threshold of the plantar was detected, and the bone joints were stained with safranin fast green.

Alzheimer's disease = assay: APP×PS1 transgenic mouse model of Alzheimer's disease; format: in vivo; settings: intraperitoneal injection, twice a week, 11 consecutive weeks; cerebral cortex; FIG. 8
Experimental: In this example, the efficacy of the compounds of the present disclosure was tested on Alzheimer's disease in an animal model of Alzheimer's disease. Briefly, a transgenic mouse model of APP×PS1 (purchased from Cyagen Biosciences) was selected and the compound of the present disclosure was administered by intraperitoneal injection for 11 consecutive weeks, twice a week. Alterations in amyloid in the cerebral cortex of the mice were observed.

hepatic fibrosis = assay: CCl4 mouse model of hepatic fibrosis; format: in vivo, mice; settings: intraperitoneal (IP) injection twice a week from third week of modelling; FIG. 9
Experimental: In this example, the efficacy of the compounds of the present disclosure was tested on hepatic fibrosis in an animal model of hepatic fibrosis. Briefly, C57BL/6N mice, male, 7 to 8 weeks old, 24 to 28 g of body weight, were used. The mouse model of hepatic fibrosis was induced by intraperitoneal injection of CCl4 solution at a dosage of 1 mL/kg, with a dosing frequency of 2 times/week, and a modelling cycle of 6 weeks. Dosing via intraperitoneal injection was started from the third week of modelling twice a week. At the end of the test, serum was collected, and liver tissue was taken for Masson staining index assay.

aging skin = assay: Aging skin in naturally aging mouse model; format: in vivo; settings: skin application twice a week, 6 consecutive weeks; aged female mice (22 months old); FIG. 10
Experimental: In this example, aged female C57bl/6J mice (22 months old) were used. The drug was administered by skin application at twice a week for 6 consecutive weeks.

renal fibrosis = assay: Renal fibrosis animal model (ureter ligation); format: in vivo, mice; settings: intraperitoneal (IP) injection from 2nd week of modelling; FIG. 11
Experimental: In this example, the efficacy of the compound of the present disclosure was tested on renal fibrosis in an animal model of renal fibrosis. Briefly, C57BL/6J mice, male, 7 to 8 weeks old, were used. The mice were anaesthetized, made to lie supine on a foam board, and disinfected with iodophor, and a longitudinal incision was made in the skin in the middle of the lower abdomen to locate the white line of the abdominal muscle, where the abdominal muscle, fascia and peritoneal layer were dissected. After exposing the surgical field, the kidneys were exposed by pushing the stomach and mesentery of the mice to the right side with a gauze soaked with saline. The model of renal fibrosis was constructed by locating the transparent ureter from the renal pelvis along the renal artery, separating the left ureter, ligating the upper ⅓ of the left ureter, suturing the incision layer by layer, and finally disinfecting with iodophor. Dosing via intraperitoneal injection was started from the 2nd week of modelling. At the end of the experiment, the mouse serum was collected and kidney tissues were taken for Masson staining index assay.

`CCOC(=O)c1nc(N2CCc3cccc(C(=O)Nc4nc5ccccc5s4)c3C2)ccc1-c1cnn(CC23CC4CC(CC(C4)C2)C3)c1C` [RZ202] was tested, and the “senescent cell clearance index (Senolytic Index)” value (shortened to “senescent cell clearance index”) [1] was “F (F represents less than 10)”.

With `Cc1c(-c2ccc(N3CCc4cccc(C(=O)Nc5nc6ccccc6s5)c4C3)nc2C(=O)OC(C)OC(=O)C(C)C)cnn1CC12CC3CC(CC(C3)C1)C2` (stereo not drawn) [RZ009] the “senescent cell clearance index” value [1] was “B (B represents 100 to 200)”.

For `CC(=O)OCOC(=O)c1nc(N2CCc3cccc(C(=O)Nc4nc5ccccc5s4)c3C2)ccc1-c1cnn(CC23CC4CC(CC(C4)C2)C3)c1C` [RZ005], the “senescent cell clearance index” value [1] was “B (B represents 100 to 200)”.

In the case of `Cc1c(-c2ccc(N3CCc4cccc(C(=O)Nc5nc6ccccc6s5)c4C3)nc2C(=O)O)cnn1CC12CC3CC(CC(C3)C1)C2` [Compound A-1331852, reference compound], the “cytotoxicity against senescent cells (cell viability)” value [2] is reported as “killing senescent cells”, the “cytotoxicity against normal cells (cell viability)” value [3] is reported as “significant cytotoxicity against normal cells” and the “senescent cell clearance index” value [1] is reported as “D (D represents 30 to 50)”.

In the case of `CCOC(=O)OCOC(=O)c1nc(N2CCc3cccc(C(=O)Nc4nc5ccccc5s4)c3C2)ccc1-c1cnn(CC23CC4CC(CC(C4)C2)C3)c1C` [RZ006], the “senescent cell clearance index” value [1] is reported as “B (B represents 100 to 200)”.

For `Cc1c(-c2ccc(N3CCc4cccc(C(=O)Nc5nc6ccccc6s5)c4C3)nc2C(=O)OCCN2CCOCC2)cnn1CC12CC3CC(CC(C3)C1)C2` [RZ011], the “senescent cell clearance index” value [1] was “F (F represents less than 10)”.

For `CCC(=O)OC(OC(=O)c1nc(N2CCc3cccc(C(=O)Nc4nc5ccccc5s4)c3C2)ccc1-c1cnn(CC23CC4CC(CC(C4)C2)C3)c1C)C(C)C` (stereo not drawn) [RZ007], the “senescent cell clearance index” value [1] was “B (B represents 100 to 200)”.

For `Cc1c(-c2ccc(N3CCc4cccc(C(=O)Nc5nc6ccccc6s5)c4C3)nc2C(=O)OC(C)OC(=O)OC(C)C)cnn1CC12CC3CC(CC(C3)C1)C2` (stereo not drawn) [RZ010], the “senescent cell clearance index” value [1] was “C (C represents 50 to 100)”.

`CCCC(=O)OCOC(=O)c1nc(N2CCc3cccc(C(=O)Nc4nc5ccccc5s4)c3C2)ccc1-c1cnn(CC23CC4CC(CC(C4)C2)C3)c1C` [RZ004] was tested, and the “senescent cell clearance index” value [1] was “B (B represents 100 to 200)”.

`Cc1c(-c2ccc(N3CCc4cccc(C(=O)Nc5nc6ccccc6s5)c4C3)nc2C(=O)OCOC(=O)C(C)(C)C)cnn1CC12CC3CC(CC(C3)C1)C2` [RZ003] was tested, and the “senescent cell clearance index” value [1] was “B (B represents 100 to 200)”.

In the case of `CCCCOC(=O)c1nc(N2CCc3cccc(C(=O)Nc4nc5ccccc5s4)c3C2)ccc1-c1cnn(CC23CC4CC(CC(C4)C2)C3)c1C` [RZ008], the “senescent cell clearance index” value [1] is reported as “F (F represents less than 10)”.

With `Cc1c(-c2ccc(N3CCc4cccc(C(=O)Nc5nc6ccccc6s5)c4C3)nc2C(=O)OCOC(=O)OC(C)C)cnn1CC12CC3CC(CC(C3)C1)C2` [RZ002] the “senescent cell clearance index” value [1] was “B (B represents 100 to 200)”, the “vascular permeability in both the retinal and choroidal vascular leakage” value (diabetic retinopathy) was “improved vascular permeability” and the fluorescence intensity indicators [4] was “statistically significant improvements”. The “HYP (hydroxyproline, lung tissue)” value [5] was “statistically significant improvements”, the “WBC (white blood cell count, alveolar lavage fluid)” value [5] was “statistically significant improvements” and the “pathology scores (H&E and Masson staining, lung)” value [5] was “statistically significant improvements”. The “pathology scores of safranin fast green staining” value (osteoarthritis) was “statistically significant improvements”, the “plantar mechanical pain threshold” value (osteoarthritis) was “statistically significant improvements” and the “Aβ42 pathogenic protein indicators” value (Alzheimer's disease) was “statistically significant improvements”. For the same molecule, the “pathology scores (liver, Masson staining)” value (hepatic fibrosis) was “statistically significant improvements”, the “serum alanine aminotransferase (ALT) levels” value (hepatic fibrosis) was “statistically significant improvements” and the “serum aspartate aminotransferase (AST) levels” value (hepatic fibrosis) was “statistically significant improvements”. The “epidermal thickness scores of the skin” value (aging skin) was “statistically significant improvements”, the “pathology (kidney, Masson staining)” value (renal fibrosis) was “statistically significant improvements” and the “serum creatinine (Cr) levels” value (renal fibrosis) was “statistically significant improvements”. For the same molecule, the “serum urea nitrogen (BUN) levels” value (renal fibrosis) was “statistically significant improvements”.

With `Cc1c(-c2ccc(N3CCc4cccc(C(=O)Nc5nc6ccccc6s5)c4C3)nc2C(=O)OCOC(=O)[C@@H](N)C(C)C)cnn1CC12CC3CC(CC(C3)C1)C2` [RZ301] the “senescent cell clearance index” value [1] was “B (B represents 100 to 200)”.
